The source of these data is ChEMBL document CHEMBL3797042, “Hybrid Pyrrole-Imidazole Alkaloids from the Sponge Agelas sceptrum” (J Nat Prod, 2016).

≈ marks a conversion by molar mass, not a printed value. Calls of active or inactive are those of the source. The calls are words filed in the database; no cut-off is given here.

Data set [1] can be described thus: (§1) Cytotoxicity against human KB3-1 cells after 5 days by WST-1 assay. Format: functional, cell-based, KB 3-1. (Tetrazolium assays rely on reduction of a dye to a coloured formazan, in cell work by metabolically active cells.)
In the next data set the test system is L929. Briefly: (§2) Cytotoxicity against mouse L929 cells after 5 days by WST-1 assay. Format: cell-based. Conditions: for IC90: mouse, l929, 120 h.
For the next data set, the system named is Klebsiella pneumoniae. The experiment in a line: Antimicrobial activity against Klebsiella pneumoniae after 24 hrs by microdilution method. Format: functional. In general terms: In broth dilution the organism is exposed to a series of concentrations in liquid medium.
Data set [2] in a line: Cytotoxicity against human FS4-LTM cells after 24 hrs by WST-1 assay. Format: cell-based. Conditions: for IC90: human, 24 h.
The next data set relates to Pseudomonas aeruginosa. The experiment in a line: Antimicrobial activity against Pseudomonas aeruginosa after 24 hrs by microdilution method. The class given is functional, organism-based.
Data set [3] deals with Staphylococcus aureus. The experiment in a line: Antimicrobial activity against methicillin-sensitive Staphylococcus aureus after 24 hrs by microdilution method. Format: functional, organism-based.
Data set [4] relates to Staphylococcus aureus. Briefly: Antimicrobial activity against methicillin-resistant Staphylococcus aureus after 24 hrs by microdilution method. The class given is functional, organism-based.
The test system of another data set is MCF7. The experiment in a line: Cytotoxicity against human MCF7 cells after 5 days by WST-1 assay. Format: functional, cell-based.
For a further data set, the system named is Candida albicans. Briefly: Antimicrobial activity against Candida albicans after 24 hrs by microdilution method. The class given is functional, organism-based.
The subject of the next data set is Micrococcus luteus. The experiment in a line: Antimicrobial activity against Micrococcus luteus after 24 hrs by microdilution method. Format: functional.
The nature of data set [5]: as §2. Format: cell-based. To be noted: mouse, L929 cells.
The subject of a further data set is KB 3-1. The data set is described as §1. Format: functional, cell-based.
Where [6] appears, read: Homo sapiens, KB 3-1, 120 h, read-out: IC50.

As to `NCCC(=O)c1cccc2c1N[C@H](CNC(=O)c1cc(Br)c(Br)[nH]1)[C@@H](c1cnc(N)[nH]1)O2`, the IC90 is not below 130 µM in [1] (Homo sapiens, KB 3-1, 120 h); “Not Active” in the data set on L929; “Not Active” in data set [2]. For the same compound, the IC50 in data set [1] (setting [6]) is 44 µM; in the data set on L929 (l929), “Not Active”; in data set [2], “Not Active”; in the data set on MCF7 (mcf7), “Not Active”. Also, the MIC result in the data set on Klebsiella pneumoniae, in the data set with Pseudomonas aeruginosa, with Staphylococcus aureus [3], in the data set on Staphylococcus aureus [4], in the data set on Candida albicans and with Micrococcus luteus was “inactive” each time. In addition, the IC90 result in the data set with MCF7 is “inactive”.

In the case of `Nc1ncc([C@@H]2[C@@H](CNC(=O)c3ccc[nH]3)[C@H](CNC(=O)c3cc(Br)c[nH]3)[C@H]2c2cnc(N)[nH]2)[nH]1`, the IC90 in data set [1] (Homo sapiens, KB 3-1, 120 h) is 92 µM; in the data set on L929, “Not Active”; in data set [2], “Not Active”. Moreover, the IC50 was 29 µM in [1] (setting [6]), “Not Active” with L929 (l929), “Not Active” in [2] and “Not Active” in the data set on MCF7 (mcf7). Besides, the MIC result in the data set on Klebsiella pneumoniae, in the data set on Pseudomonas aeruginosa, in the data set with Staphylococcus aureus [3], with Staphylococcus aureus [4], with Candida albicans and in the data set on Micrococcus luteus was “inactive” throughout. Further, the IC90 entry in the data set with MCF7 was “inactive”.

On to `Nc1ncc([C@@H]2[C@@H](CNC(=O)c3cc(Br)c[nH]3)[C@H](CNC(=O)c3cc(Br)c[nH]3)[C@H]2c2cnc(N)[nH]2)[nH]1`, for which the IC90 is 2390 µM in data set [1] (Homo sapiens, KB 3-1, 120 h); “Not Active” in data set [2]; not below 238 µM with MCF7 (Homo sapiens, MCF7, 120 h). For the same compound, the half-inhibitory concentration (IC50) in [1] (setting [6]) was 80 µM; in the data set on L929 (Mus musculus, L929, 120 h, read-out: IC50), 193 µM; in [2] it was “Not Active”; in the data set on MCF7 (Homo sapiens, MCF7, 120 h, read-out: IC50) it was 238 µM. Further, in [5], the IC90 at 120 h is not below 238 µM. For the same compound, the minimum inhibitory concentration (MIC) with Klebsiella pneumoniae and in the data set on Micrococcus luteus was 32 µM (≈ 19.8 µg/mL) each time. Moreover, the MIC entry in the data set with Pseudomonas aeruginosa, in the data set on Staphylococcus aureus [3], in the data set on Staphylococcus aureus [4] and in the data set on Candida albicans was “inactive” throughout.

Turning to `C[n+]1cnc2[nH]c(=O)n(-c3nc(N)[nH]c3[C@@H]3[C@@H](CNC(=O)c4cc(Br)c[nH]4)[C@H](CNC(=O)c4cc(Br)c[nH]4)[C@H]3c3cnc(N)[nH]3)c2c1N`, the IC50 result (in [1] (kb 3-1); in the data set with L929 (l929); in data set [2]; in the data set on MCF7 (mcf7)) was “Not Active” in each case. Moreover, the IC90 entry in the data set with KB 3-1 and in the data set with MCF7 was “inactive” each time. The IC90 result (with L929; in data set [2]) was “Not Active” each time. The MIC entry with Klebsiella pneumoniae, in the data set with Pseudomonas aeruginosa, in the data set with Staphylococcus aureus [3], in the data set on Staphylococcus aureus [4], with Candida albicans and in the data set with Micrococcus luteus was “inactive” throughout.

`Nc1ncc(/C=C/CNC(=O)c2cc(Br)c(Br)[nH]2)[nH]1` [OROIDIN]: the IC50 entry (in data set [1] (kb 3-1); in the data set on L929 (l929); in data set [2]; in the data set on MCF7 (mcf7)) was “Not Active” throughout. Also, the IC90 result with KB 3-1 and with MCF7 was “inactive” throughout. Further, the IC90 entry (in the data set with L929; in data set [2]) was “Not Active” in each case. Moreover, the MIC result in the data set with Klebsiella pneumoniae, in the data set on Pseudomonas aeruginosa, with Staphylococcus aureus [3], with Staphylococcus aureus [4], in the data set on Candida albicans and in the data set with Micrococcus luteus was “inactive” throughout.

As usually defined, the IC90 is the point of the concentration-response curve where the effect stands at 90%. A word on the IC50: it is the concentration that gives 50% inhibition. Broadly, the MIC is the lowest concentration found to suppress growth.
